Type in all cases: functional
The subject of one assay is Pseudomonas aeruginosa. As to the kind of experiment: Antibacterial activity against Pseudomonas aeruginosa PAO1 assessed as inhibition of bacterial growth measured after 24 hrs by broth microdilution method. (In general: In broth dilution the organism is exposed to a series of concentrations in liquid medium.)
A further assay has as its system Staphylococcus aureus. The assay can be described thus: Antibacterial activity against Staphylococcus aureus ATCC 25923 assessed as inhibition of bacterial growth measured after 24 hrs by broth microdilution method.
The next assay concerns Klebsiella pneumoniae. As to the kind of experiment: Antibacterial activity against Klebsiella pneumoniae ATCC 13883 assessed as inhibition of bacterial growth measured after 24 hrs by broth microdilution method.

In brackets after ≈: the same amount, converted by molar mass. Bridge positions count the residues as written; N and C are the ends. Square brackets hold non-standard residues; d marks the D form. Peptide text beside a SMILES is read from it. R5 = C=CCCC[C@@](C)(N)C(=O)O; S5 = C=CCCC[C@](C)(N)C(=O)O

Usually MIC stands for the lowest concentration found to suppress growth. Take `CC[C@H](C)[C@H](NC(=O)CNC(=O)[C@H](CC(=O)O)NC(=O)[C@H](CCCNC(=N)N)NC(=O)[C@@H](NC(=O)[C@H](CC(N)=O)NC(=O)[C@H](CCC(N)=O)NC(=O)CNC(=O)[C@@H](NC(=O)[C@H](CCCCN)NC(=O)[C@H](CCC(=O)O)NC(=O)[C@@H](NC(=O)[C@H](CCCCN)NC(=O)[C@H](CCCCN)NC(=O)[C@H](Cc1ccccc1)NC(=O)[C@H](CC(C)C)NC(=O)[C@H](CCCCN)NC(=O)[C@H](Cc1c[nH]c2ccccc12)NC(=O)[C@H](CCCCN)NC(C)=O)[C@@H](C)CC)C(C)C)[C@@H](C)CC)C(=O)N[C@H](C(=O)N[C@@H](CCCCN)C(=O)N[C@@H](C)C(=O)NCC(=O)N1CCC[C@H]1C(=O)N[C@@H](C)C(=O)N[C@H](C(=O)N[C@@]1(C)CCC/C=C\CCC[C@@](C)(C(=O)N[C@@H](C)C(=O)N[C@H](C(=O)N[C@@H](CCC(N)=O)C(=O)N[C@H](C(=O)N[C@@H](C)C(=O)N[C@@H](CCCCN)C(N)=O)[C@@H](C)CC)[C@@H](C)O)NC(=O)CNC(=O)[C@H](C(C)C)NC(=O)[C@H](C(C)C)NC1=O)C(C)C)[C@@H](C)CC` (Ac-KWKLFKKIEKVGQNIRDGIIKAGPAV[S5]VVG[S5]ATQIAK-NH2; staple (Z) 27-31): the MIC in the assay on Pseudomonas aeruginosa worked out at 6.25 µM (≈ 25.6 µg/mL); with Staphylococcus aureus it was 3.13 µM (≈ 12.8 µg/mL); in the assay with Klebsiella pneumoniae, 6.25 µM (≈ 25.6 µg/mL).
As to `CC[C@H](C)[C@H](NC(=O)[C@H](CCC(N)=O)NC(=O)[C@@H](NC(=O)[C@H](C)NC(=O)[C@H](CCC(N)=O)NC(=O)CNC(=O)[C@@H](NC(=O)[C@@H](NC(=O)[C@H](C)NC(=O)[C@@H](NC(=O)[C@H](C)NC(=O)[C@@H]1CCCN1C(=O)CNC(=O)[C@]1(C)CCC/C=C\CCC[C@](C)(NC(=O)[C@H](CC(=O)O)NC(=O)[C@H](CCCNC(=N)N)NC(=O)[C@@H](NC(=O)[C@H](CC(N)=O)NC(=O)[C@H](CCC(N)=O)NC(=O)CNC(=O)[C@@H](NC(=O)[C@H](CCCCN)NC(=O)[C@H](CCC(=O)O)NC(=O)[C@@H](NC(=O)[C@H](CCCCN)NC(=O)[C@H](CCCCN)NC(=O)[C@H](Cc2ccccc2)NC(=O)[C@H](CC(C)C)NC(=O)[C@H](CCCCN)NC(=O)[C@H](Cc2c[nH]c3ccccc23)NC(=O)[C@H](CCCCN)NC(C)=O)[C@@H](C)CC)C(C)C)[C@@H](C)CC)C(=O)N[C@@H]([C@@H](C)CC)C(=O)N[C@@H]([C@@H](C)CC)C(=O)N[C@@H](CCCCN)C(=O)N1)C(C)C)C(C)C)C(C)C)[C@@H](C)O)C(=O)N[C@@H](C)C(=O)N[C@@H](CCCCN)C(N)=O` (Ac-KWKLFKKIEKVGQNIRD[S5]IIK[S5]GPAVAVVGQATQIAK-NH2; staple (Z) 18-22), the MIC in the assay on Pseudomonas aeruginosa, in the assay with Staphylococcus aureus and in the assay with Klebsiella pneumoniae was 3.13 µM (≈ 13 µg/mL) in each case.
Take `CC[C@H](C)[C@H](NC(=O)CNC(=O)[C@H](CC(=O)O)NC(=O)[C@H](CCCNC(=N)N)NC(=O)[C@@H](NC(=O)[C@H](CC(N)=O)NC(=O)[C@H](CCC(N)=O)NC(=O)CNC(=O)[C@]1(C)CCC/C=C\CCC[C@](C)(NC(=O)[C@H](CCCCN)NC(=O)[C@H](Cc2ccccc2)NC(=O)[C@H](CC(C)C)NC(=O)[C@H](CCCCN)NC(=O)[C@H](Cc2c[nH]c3ccccc23)NC(=O)[C@H](CCCCN)NC(C)=O)C(=O)N[C@@H]([C@@H](C)CC)C(=O)N[C@@H](CCC(=O)O)C(=O)N[C@@H](CCCCN)C(=O)N1)[C@@H](C)CC)C(=O)N[C@H](C(=O)N[C@@H](CCCCN)C(=O)N[C@@H](C)C(=O)NCC(=O)N1CCC[C@H]1C(=O)N[C@@H](C)C(=O)N[C@H](C(=O)N[C@@H](C)C(=O)N[C@H](C(=O)N[C@H](C(=O)NCC(=O)N[C@@H](CCC(N)=O)C(=O)N[C@@H](C)C(=O)N[C@H](C(=O)N[C@@H](CCC(N)=O)C(=O)N[C@H](C(=O)N[C@@H](C)C(=O)N[C@@H](CCCCN)C(N)=O)[C@@H](C)CC)[C@@H](C)O)C(C)C)C(C)C)C(C)C)[C@@H](C)CC` (Ac-KWKLFK[S5]IEK[S5]GQNIRDGIIKAGPAVAVVGQATQIAK-NH2; staple (Z) 7-11): the values for the minimum inhibitory concentration (MIC) in the assay on Pseudomonas aeruginosa, in the assay with Staphylococcus aureus and in the assay on Klebsiella pneumoniae were over 100 µM, over 100 µM and 6.25 µM (≈ 25.4 µg/mL), respectively.
Take `CC[C@H](C)[C@H](NC(=O)CNC(=O)[C@H](CC(=O)O)NC(=O)[C@H](CCCNC(=N)N)NC(=O)[C@@H](NC(=O)[C@H](CC(N)=O)NC(=O)[C@H](CCC(N)=O)NC(=O)[C@]1(C)CCC/C=C\CCC[C@](C)(NC(=O)[C@H](CCCCN)NC(=O)[C@H](CCCCN)NC(=O)[C@H](Cc2ccccc2)NC(=O)[C@H](CC(C)C)NC(=O)[C@H](CCCCN)NC(=O)[C@H](Cc2c[nH]c3ccccc23)NC(=O)[C@H](CCCCN)NC(C)=O)C(=O)N[C@@H](CCC(=O)O)C(=O)N[C@@H](CCCCN)C(=O)N[C@@H](C(C)C)C(=O)N1)[C@@H](C)CC)C(=O)N[C@H](C(=O)N[C@@H](CCCCN)C(=O)N[C@@H](C)C(=O)NCC(=O)N1CCC[C@H]1C(=O)N[C@@H](C)C(=O)N[C@H](C(=O)N[C@@H](C)C(=O)N[C@H](C(=O)N[C@H](C(=O)NCC(=O)N[C@@H](CCC(N)=O)C(=O)N[C@@H](C)C(=O)N[C@H](C(=O)N[C@@H](CCC(N)=O)C(=O)N[C@H](C(=O)N[C@@H](C)C(=O)N[C@@H](CCCCN)C(N)=O)[C@@H](C)CC)[C@@H](C)O)C(C)C)C(C)C)C(C)C)[C@@H](C)CC` (Ac-KWKLFKK[S5]EKV[S5]QNIRDGIIKAGPAVAVVGQATQIAK-NH2; staple (Z) 8-12): the MIC was over 100 µM with Pseudomonas aeruginosa, 6.25 µM (≈ 25.8 µg/mL) in the assay with Staphylococcus aureus and 6.25 µM (≈ 25.8 µg/mL) in the assay with Klebsiella pneumoniae.
`CC[C@H](C)[C@H](NC(=O)CNC(=O)[C@H](CC(=O)O)NC(=O)[C@H](CCCNC(=N)N)NC(=O)[C@@H](NC(=O)[C@H](CC(N)=O)NC(=O)[C@H](CCC(N)=O)NC(=O)CNC(=O)[C@@H](NC(=O)[C@H](CCCCN)NC(=O)[C@H](CCC(=O)O)NC(=O)[C@@H](NC(=O)[C@H](CCCCN)NC(=O)[C@]1(C)CCC/C=C\CCC[C@](C)(NC(=O)[C@H](CCCCN)NC(C)=O)C(=O)N[C@@H](CCCCN)C(=O)N[C@@H](CC(C)C)C(=O)N[C@@H](Cc2ccccc2)C(=O)N1)[C@@H](C)CC)C(C)C)[C@@H](C)CC)C(=O)N[C@H](C(=O)N[C@@H](CCCCN)C(=O)N[C@@H](C)C(=O)NCC(=O)N1CCC[C@H]1C(=O)N[C@@H](C)C(=O)N[C@H](C(=O)N[C@@H](C)C(=O)N[C@H](C(=O)N[C@H](C(=O)NCC(=O)N[C@@H](CCC(N)=O)C(=O)N[C@@H](C)C(=O)N[C@H](C(=O)N[C@@H](CCC(N)=O)C(=O)N[C@H](C(=O)N[C@@H](C)C(=O)N[C@@H](CCCCN)C(N)=O)[C@@H](C)CC)[C@@H](C)O)C(C)C)C(C)C)C(C)C)[C@@H](C)CC` (Ac-K[S5]KLF[S5]KIEKVGQNIRDGIIKAGPAVAVVGQATQIAK-NH2; staple (Z) 2-6): the MIC in the assay on Pseudomonas aeruginosa, in the assay with Staphylococcus aureus and with Klebsiella pneumoniae was over 100 µM throughout.
As for `CC[C@H](C)[C@H](NC(=O)CNC(=O)[C@H](CC(=O)O)NC(=O)[C@H](CCCNC(=N)N)NC(=O)[C@@H](NC(=O)[C@H](CC(N)=O)NC(=O)[C@H](CCC(N)=O)NC(=O)CNC(=O)[C@@H](NC(=O)[C@H](CCCCN)NC(=O)[C@H](CCC(=O)O)NC(=O)[C@@H](NC(=O)[C@H](CCCCN)NC(=O)[C@H](CCCCN)NC(=O)[C@]1(C)CCC/C=C\CCC[C@](C)(NC(C)=O)C(=O)N[C@@H](Cc2c[nH]c3ccccc23)C(=O)N[C@@H](CCCCN)C(=O)N[C@@H](CC(C)C)C(=O)N1)[C@@H](C)CC)C(C)C)[C@@H](C)CC)C(=O)N[C@H](C(=O)N[C@@H](CCCCN)C(=O)N[C@@H](C)C(=O)NCC(=O)N1CCC[C@H]1C(=O)N[C@@H](C)C(=O)N[C@H](C(=O)N[C@@H](C)C(=O)N[C@H](C(=O)N[C@H](C(=O)NCC(=O)N[C@@H](CCC(N)=O)C(=O)N[C@@H](C)C(=O)N[C@H](C(=O)N[C@@H](CCC(N)=O)C(=O)N[C@H](C(=O)N[C@@H](C)C(=O)N[C@@H](CCCCN)C(N)=O)[C@@H](C)CC)[C@@H](C)O)C(C)C)C(C)C)C(C)C)[C@@H](C)CC` (Ac-[S5]WKL[S5]KKIEKVGQNIRDGIIKAGPAVAVVGQATQIAK-NH2; staple (Z) 1-5), the minimal inhibitory concentration (MIC) with Pseudomonas aeruginosa was over 100 µM; in the assay with Staphylococcus aureus, over 100 µM; with Klebsiella pneumoniae it was 12.5 µM (≈ 50.3 µg/mL).
Consider `CC[C@H](C)[C@H](NC(=O)CNC(=O)[C@H](CC(=O)O)NC(=O)[C@H](CCCNC(=N)N)NC(=O)[C@@H](NC(=O)[C@H](CC(N)=O)NC(=O)[C@H](CCC(N)=O)NC(=O)CNC(=O)[C@@H](NC(=O)[C@H](CCCCN)NC(=O)[C@H](CCC(=O)O)NC(=O)[C@]1(C)CCC/C=C\CCC[C@](C)(NC(=O)[C@H](CCCCN)NC(=O)[C@H](Cc2c[nH]c3ccccc23)NC(=O)[C@H](CCCCN)NC(C)=O)C(=O)N[C@@H](Cc2ccccc2)C(=O)N[C@@H](CCCCN)C(=O)N[C@@H](CCCCN)C(=O)N1)C(C)C)[C@@H](C)CC)C(=O)N[C@H](C(=O)N[C@@H](CCCCN)C(=O)N[C@@H](C)C(=O)NCC(=O)N1CCC[C@H]1C(=O)N[C@@H](C)C(=O)N[C@H](C(=O)N[C@@H](C)C(=O)N[C@H](C(=O)N[C@H](C(=O)NCC(=O)N[C@@H](CCC(N)=O)C(=O)N[C@@H](C)C(=O)N[C@H](C(=O)N[C@@H](CCC(N)=O)C(=O)N[C@H](C(=O)N[C@@H](C)C(=O)N[C@@H](CCCCN)C(N)=O)[C@@H](C)CC)[C@@H](C)O)C(C)C)C(C)C)C(C)C)[C@@H](C)CC` (Ac-KWK[S5]FKK[S5]EKVGQNIRDGIIKAGPAVAVVGQATQIAK-NH2; staple (Z) 4-8), for which the MIC is over 100 µM in the assay on Pseudomonas aeruginosa, 25 µM (≈ 102 µg/mL) with Staphylococcus aureus and 6.25 µM (≈ 25.4 µg/mL) in the assay with Klebsiella pneumoniae.
Taken in the same sequence, the figures for `CC[C@H](C)[C@@H]1NC(=O)CNC(=O)[C@](C)(NC(=O)[C@H](CCCNC(=N)N)NC(=O)[C@@H](NC(=O)[C@H](CC(N)=O)NC(=O)[C@H](CCC(N)=O)NC(=O)CNC(=O)[C@@H](NC(=O)[C@H](CCCCN)NC(=O)[C@H](CCC(=O)O)NC(=O)[C@@H](NC(=O)[C@H](CCCCN)NC(=O)[C@H](CCCCN)NC(=O)[C@H](Cc2ccccc2)NC(=O)[C@H](CC(C)C)NC(=O)[C@H](CCCCN)NC(=O)[C@H](Cc2c[nH]c3ccccc23)NC(=O)[C@H](CCCCN)NC(C)=O)[C@@H](C)CC)C(C)C)[C@@H](C)CC)CCC/C=C\CCC[C@](C)(C(=O)N[C@@H](C)C(=O)NCC(=O)N2CCC[C@H]2C(=O)N[C@@H](C)C(=O)N[C@H](C(=O)N[C@@H](C)C(=O)N[C@H](C(=O)N[C@H](C(=O)NCC(=O)N[C@@H](CCC(N)=O)C(=O)N[C@@H](C)C(=O)N[C@H](C(=O)N[C@@H](CCC(N)=O)C(=O)N[C@H](C(=O)N[C@@H](C)C(=O)N[C@@H](CCCCN)C(N)=O)[C@@H](C)CC)[C@@H](C)O)C(C)C)C(C)C)C(C)C)NC(=O)[C@H]([C@@H](C)CC)NC1=O` (Ac-KWKLFKKIEKVGQNIR[R5]GII[R5]AGPAVAVVGQATQIAK-NH2; staple (Z) 17-21) were over 100 µM, 6.25 µM (≈ 25.3 µg/mL) and 25 µM (≈ 101 µg/mL).
